According to PubChem BioAssay AID1549 (Sanford-Burnham Center for Chemical Genomics, 2009):
Calls of active or inactive are those of the source. The rule behind the calls is not given here.

Target: Influenza A virus M2 proton channel (A/TW/4845/1999 H1N1)
Experiment: NMR binding screen, influenza A virus M2 proton channel, Kd (AID 1549)
Details: M2 protein

SMILES	Kd
Cc1cc(C)nc(Nc2n[nH]c(Cc3ccccc3)n2)n1	> 4 mM (inactive)
C=C(C)C1(O)OC(=O)C=C1OC (stereo unspecified)	> 4 mM (inactive)
CCc1noc(C)c1C(=O)Nc1ncc(C)s1	> 4 mM (inactive)
O=C(Nc1ccc(N2CCOCC2)cc1)C1CC1	> 4 mM (inactive)
O=C1Nc2ccc(S(=O)(=O)NCCO)c3cccc1c23	> 4 mM (inactive)
COC(=O)c1sc(N)nc1C	> 4 mM (inactive)
O=C(NCCO)NC(=S)c1ccccc1	> 4 mM (inactive)
CC1(c2ccncc2)NC(=O)NC1=O (stereo unspecified)	> 4 mM (inactive)
COc1ccccc1-c1c(C)nn2c(C)c(C(C)=O)cnc12	> 4 mM (inactive)
COc1ccccc1/C=C/CN1CCOCC1	> 4 mM (inactive)
O=C(c1ccco1)N1CCCN(C(=O)c2ccco2)CC1	> 4 mM (inactive)
OCC1CCCC1O (stereo unspecified)	> 4 mM (inactive)
c1ccc(Cc2nnc(-c3ccccc3)o2)cc1	> 4 mM (inactive)
COc1ccc(-c2oc3c(CC=C(C)C)c(O[C@@H]4O[C@H](CO)[C@@H](O)[C@H](O)[C@H]4O)cc(O)c3c(=O)c2O[C@@H]2O[C@@H](C)[C@H](O)[C@@H](O)[C@H]2O)cc1	> 4 mM (inactive)
COc1ccc(-c2coc3cc(O)ccc3c2=O)c(OC)c1	> 4 mM (inactive)
CCCCN1C(=O)N(C)C2NC(=O)NC21 (stereo unspecified)	> 4 mM (inactive)
CSc1ccccc1NC(=O)c1ccco1	> 4 mM (inactive)
CC(=O)N/N=C(\C)c1cccc(N)c1	> 4 mM (inactive)
O=C(NCc1cccs1)c1ccncc1	> 4 mM (inactive)
Brc1ccc(-c2nc(-c3ccncc3)no2)o1	> 4 mM (inactive)
COc1cccc(/C=N/N=C2/NC(=O)CS2)c1	> 4 mM (inactive)
C=CCN1CC[C@]23c4c5ccc(O)c4OC2C(=O)CC[C@@]3(O)[C@H]1C5 (stereo partly specified)	> 4 mM (inactive)
CCNC(=S)Nc1c(C)n(C)n(-c2ccccc2)c1=O	> 4 mM (inactive)
COc1ccc2c(C)cc(=O)oc2c1	> 4 mM (inactive)
O=C(/C=C/c1ccccc1)NC1CCS(=O)(=O)C1 (stereo unspecified)	> 4 mM (inactive)

SMILES	Kd
COc1c(-c2ccccc2)oc2c(OC)cccc2c1=O	> 4 mM (inactive)
O=C1CCC(=O)N1c1ccc(F)cc1	> 4 mM (inactive)
CC(C)[C@@H]1CC[C@@H](C)CC1=O	> 4 mM (inactive)
COc1ccc(Cl)cc1NC(=O)C(N)=O	> 4 mM (inactive)
NNc1ncnc2sccc12	> 4 mM (inactive)
CC(C)c1c(O)c(-c2cc3c(c(C(C)C)c2O)CCC2C(C)(C)CCC[C@]32C)cc2c1CCC1C(C)(C)CCC[C@]21C (stereo partly specified)	> 4 mM (inactive)
CN1CCC[C@H]1c1cccnc1	> 4 mM (inactive)
c1ccc(CCc2nc(-c3ccncc3)no2)cc1	> 4 mM (inactive)
CC(=O)N1CN(C(C)=O)CN(C(C)=O)C1	> 4 mM (inactive)
NC(=O)c1ccc(-c2ccccn2)s1	> 4 mM (inactive)
O=C(Nc1ccon1)c1csc2c1CCCC2	> 4 mM (inactive)
CC1(C)Cn2c(nnc2-c2ccccc2)S1	> 4 mM (inactive)
CCCc1cc2c(c(NC(C)=O)n1)c(=O)oc1ccccc12	> 4 mM (inactive)
C/C(=N\NC(N)=S)C(=O)O	> 4 mM (inactive)
Cc1cc(/C=N/O)nc(=O)[nH]1	> 4 mM (inactive)
O=c1nc(N2CCOCC2)nc2n1CCO2	> 4 mM (inactive)
C=C1C2CC[C@H]3[C@]4(C)C[C@H](OC5OC(CO)C(OS(=O)(=O)O)C(OS(=O)(=O)O)C5OC(=O)CC(C)C)C[C@@H](C(=O)O)[C@H]4CC[C@]3(C2)[C@H]1O (stereo partly specified)	> 4 mM (inactive)
Nc1ncnc(NCc2cccnc2)c1[N+](=O)[O-]	> 4 mM (inactive)
O=c1cc(-c2ccc(O)cc2)[nH]c(=S)[nH]1	> 4 mM (inactive)
ON=c1ccc2nc3ccccc3nc2cc1	> 4 mM (inactive)
Cc1nnc(SCC(N)=O)c2ccccc12	> 4 mM (inactive)
Cc1cc(C)nc(NC(N)=NCc2ccco2)n1	> 4 mM (inactive)
CCSc1nc(=S)n(CC)c(C)c1C(C)=O	> 4 mM (inactive)
NC(=O)CSc1ncnc2ccccc12	> 4 mM (inactive)
O=C(O)C1=CCCNC1	> 4 mM (inactive)

SMILES	Kd
O=C1CNC(=O)N1Cc1ccc(Br)cc1	> 4 mM (inactive)
CN1CCN(CC(O)c2ccccc2)CC1 (stereo unspecified)	> 4 mM (inactive)
O=S1(=O)C=C(Nc2ccccc2)CC1	> 4 mM (inactive)
Cc1nc2ccccc2c(=O)n1/N=C/c1ccco1	> 4 mM (inactive)
Cc1cc(O)c2c(c1O)C(=O)c1c(O)cc(C)c(O)c1C2=O	> 4 mM (inactive)
COc1cc(C)nc(N(CCO)CCO)n1	> 4 mM (inactive)
S=C(Nc1ccc2nccnc2c1)N1CCOCC1	> 4 mM (inactive)
COc1ccccc1NC(=O)c1ccc(Br)o1	> 4 mM (inactive)
Oc1ccc(C2SCCS2)cc1	> 4 mM (inactive)
Cc1cc(C(=O)NC(C)c2ccncc2)cs1 (stereo unspecified)	> 4 mM (inactive)
O=C(O)c1ccc(NCc2cccnc2)cc1	> 4 mM (inactive)
CC1(C)CC2C1CCC1(C)OC1CCC2(C)O (stereo unspecified)	> 4 mM (inactive)
CCOC(=O)c1cc(C)n(-n2cnnc2)c1C	> 4 mM (inactive)
CCN1C[C@@]2(COC)C3[C@@H](OC)[C@H]4[C@@H]1[C@]3(C(OC)C[C@H]2O)C1C[C@@]2(O)[C@H](OC(=O)c3ccccc3)C1[C@]4(OC(C)=O)[C@@H](O)[C@@H]2OC (stereo partly specified)	> 4 mM (inactive)
NC(=O)c1ccccc1NC(=O)c1cccnc1	> 4 mM (inactive)
COc1ccc(C)cc1S(=O)(=O)Nc1ccccc1C	> 4 mM (inactive)
C[C@H]1C[C@@H](O)[C@]2(O)[C@@]13CC(=O)OC[C@@]2(C)[C@](C)(O)C(=O)C3	> 4 mM (inactive)
Cc1sc2nc3n(c(=O)c2c1C)CCCS3	> 4 mM (inactive)
Cc1cc(=O)cc(C)n1NC(N)=S	> 4 mM (inactive)
CNC(=S)N1CCN(C(=O)c2ccco2)CC1	> 4 mM (inactive)
O=C(O)c1ccc(-c2cccs2)s1	> 4 mM (inactive)
COc1ccc2c(c1)OCC(Cc1ccc(OC)c(OC(C)=O)c1)C2=O (stereo unspecified)	> 4 mM (inactive)
NCCCCNCCCN	> 4 mM (inactive)
COc1cccc(S(=O)(=O)Nc2cccnc2)c1	> 4 mM (inactive)
COc1ccc2c(=O)c(OC)c(-c3ccccc3)oc2c1	> 4 mM (inactive)

SMILES	Kd
CN1C(CC(=O)c2ccccc2)CCCC1CC(O)c1ccccc1 (stereo unspecified)	> 4 mM (inactive)
COc1cc(/C=C/C(=O)O)ccc1O	> 4 mM (inactive)
CC(=O)Oc1c(C)c(C)c2c(c1C)CCC(C)(CCCC(C)CCCC(C)CCCC(C)C)O2 (stereo unspecified)	> 4 mM (inactive)
Cc1cc(C)n(S(=O)(=O)c2ccc(C(C)(C)C)cc2)n1	> 4 mM (inactive)
COc1ccccc1NC(=O)NC(N)=O	> 4 mM (inactive)
Cc1occc1C(=O)NCc1ccccn1	> 4 mM (inactive)
CC(O)(C(=O)O)c1ccccc1 (stereo unspecified)	> 4 mM (inactive)
O=C(O)c1ccc(-c2ccccn2)s1	> 4 mM (inactive)
CCc1ccc2oc(-c3cc(N)cc(C)c3O)nc2c1	> 4 mM (inactive)
Cc1occc1C(=O)N1CCC2(CC1)OCCO2	> 4 mM (inactive)
O=C(Cc1cccs1)Nc1nncs1	> 4 mM (inactive)
Cn1ccnc1SCc1cc(=O)[nH]c2ccccc12	> 4 mM (inactive)
O=CN1CCN(C(=O)c2ccccc2F)CC1	> 4 mM (inactive)
O=C1CCCC(=O)N1Cc1ccco1	> 4 mM (inactive)
O=C1CS/C(=N/S(=O)(=O)c2ccccc2)N1	> 4 mM (inactive)
CC1(NC(=O)NCc2ccccc2)CCS(=O)(=O)C1 (stereo unspecified)	> 4 mM (inactive)
O=C(O)c1cccnc1Oc1ccccc1	> 4 mM (inactive)
CC(=O)Nc1cccc(N2CCCC2=O)c1	> 4 mM (inactive)
c1ccc(-n2nnnc2-n2cnc3ccccc32)cc1	> 4 mM (inactive)
CSc1nnc(CN2CCSCC2)n1C	> 4 mM (inactive)
Nc1ccc(N2CCCCC2)cc1	> 4 mM (inactive)
CSc1cc(C)[nH]c(=O)n1	> 4 mM (inactive)
Nc1ccccc1N1CCOCC1	> 4 mM (inactive)
CNC(=S)Nc1ncn(Cc2cccc(F)c2)n1	> 4 mM (inactive)
Nc1nc(SCC(=O)c2ccc([N+](=O)[O-])cc2)n[nH]1	> 4 mM (inactive)

SMILES	Kd
Cn1cnc2c1c(=O)[nH]c(=O)n2C	> 4 mM (inactive)
OCc1sccc1-n1cccc1	> 4 mM (inactive)
O=CN1CCN(C2CC(=O)N(c3ccccc3)C2=O)CC1 (stereo unspecified)	> 4 mM (inactive)
Cn1nnc2c(N3CCC(C(N)=O)CC3)ncnc21	> 4 mM (inactive)
OCc1ccncc1	> 4 mM (inactive)
CC(=O)O[C@H]1CC[C@@]2(C)C(=CCC3C2CC[C@@]2(C)C3CC[C@@H]2C(C)CCCC(C)C)C1 (stereo partly specified)	> 4 mM (inactive)
NC(=O)CSc1ccc(Br)cc1	> 4 mM (inactive)
CC(=O)Nc1cccc(-c2nc3ccccc3c(=O)o2)c1	> 4 mM (inactive)
OC1(c2ccc(Cl)cc2)CCNCC1	> 4 mM (inactive)
CC(=O)OC[C@@]1(O)C[C@@]23CCC4c5ccoc5CC[C@]4(C)C2CC[C@@H]1C3 (stereo partly specified)	> 4 mM (inactive)
CN=C(C)c1c(O)n(C)c(=O)n(C)c1=O	> 4 mM (inactive)
COC(=O)c1[nH]c2ccccc2c1C(=O)OC	> 4 mM (inactive)
Cc1ccc(CO)o1	> 4 mM (inactive)
O=C1NC(=S)N/C1=C\c1cccc([N+](=O)[O-])c1	> 4 mM (inactive)
CNC(=O)c1cc2cccc(OC)c2oc1=O	> 4 mM (inactive)
Cc1nc2nc(Cc3ccccc3)nn2c(C)c1Cl	> 4 mM (inactive)
Cc1ccc(C)n1NC(=O)c1ccco1	> 4 mM (inactive)
COc1cc(-c2csc(C)n2)ccc1O	> 4 mM (inactive)
COc1ccc2c(CC(=O)O)coc2c1	> 4 mM (inactive)
Cc1cc(=O)cc(C)n1-c1ccccc1N	> 4 mM (inactive)
NC1CN2CCC1CC2 (stereo unspecified)	> 4 mM (inactive)
